Data: patent publication US7317037B2, “Progesterone receptor modulators comprising pyrrole-oxindole derivatives and uses thereof” (Wyeth, priority 2004, dated 2008)

What follows are compounds tested against T1, progesterone receptor (PR) (Homo sapiens, UniProt P06401) (assay: T47D cell alkaline phosphatase assay (antagonist mode)). Conditions: T47D cells, antagonist mode in the presence of 1 nM progesterone, 24 hours; read-out: IC50 (nM), T47D Cell Alkaline Phosphatase Assay.
T1 construct: Effects of Progestins and Antiprogestins on Alkaline Phosphatase Activity in T47D Cells; endogenous in cells; host or cells: T47D cells
T1 sequence (P06401 1-933): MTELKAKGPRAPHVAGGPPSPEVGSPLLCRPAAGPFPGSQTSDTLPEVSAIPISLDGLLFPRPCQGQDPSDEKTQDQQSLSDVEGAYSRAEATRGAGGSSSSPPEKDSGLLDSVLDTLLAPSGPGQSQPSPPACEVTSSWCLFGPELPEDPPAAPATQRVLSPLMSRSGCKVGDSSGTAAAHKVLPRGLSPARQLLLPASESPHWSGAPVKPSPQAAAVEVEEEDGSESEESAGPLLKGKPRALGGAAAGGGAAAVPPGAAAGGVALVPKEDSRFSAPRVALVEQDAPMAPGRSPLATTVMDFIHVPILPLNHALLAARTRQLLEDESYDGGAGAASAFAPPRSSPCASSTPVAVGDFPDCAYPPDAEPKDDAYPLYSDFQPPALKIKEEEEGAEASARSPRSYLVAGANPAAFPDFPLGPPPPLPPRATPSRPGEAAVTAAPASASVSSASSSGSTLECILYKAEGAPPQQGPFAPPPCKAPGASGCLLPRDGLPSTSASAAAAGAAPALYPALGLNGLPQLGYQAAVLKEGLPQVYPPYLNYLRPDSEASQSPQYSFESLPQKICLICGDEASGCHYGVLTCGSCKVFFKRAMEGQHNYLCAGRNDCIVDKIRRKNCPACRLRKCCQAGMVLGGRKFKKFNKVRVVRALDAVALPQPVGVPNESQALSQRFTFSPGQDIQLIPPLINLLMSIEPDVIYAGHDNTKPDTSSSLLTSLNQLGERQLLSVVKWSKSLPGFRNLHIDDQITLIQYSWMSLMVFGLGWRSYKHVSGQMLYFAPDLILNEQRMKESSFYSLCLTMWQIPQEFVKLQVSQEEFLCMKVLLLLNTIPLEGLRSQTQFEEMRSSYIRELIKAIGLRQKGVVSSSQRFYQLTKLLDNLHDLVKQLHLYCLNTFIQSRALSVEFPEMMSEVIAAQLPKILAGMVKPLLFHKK
Type: cell-based
Procedure: A. Effects of Progestins and Antiprogestins on Alkaline Phosphatase Activity in T47D Cells (T47D Alkaline Phosphatase Assay)
Culture medium: DMEM:F12 (1:1) (GIBCO, BRL) supplemented with 5% (v/v) charcoal stripped fetal bovine serum (not heat-inactivated), 100 U/mL penicillin, 100 μg/mL streptomycin, and 2 mM GlutaMax (GIBCO, BRL).
Alkaline phosphatase assay buffer: I. 0.1M Tris-HCl, pH 9.8, containing 0.2% Triton X-100, 0.1M Tris-HCl, pH 9.8, containing 4 mM p-nitrophenyl phosphate (Sigma).
2. Cell Culture and Treatment:
Frozen T47D cells are thawed in a 37° C. water bath and diluted to 280,000 cells/mL in culture medium. To each well in a 96-well plate (Falcon, Becton Dickinson Labware), 180 μl of diluted cell suspension is added. Twenty μl of reference or test compounds diluted in the culture medium is then added to each well. When testing for progestin antagonist activity, reference antiprogestins or test compounds are added in the presence of 1 nM progesterone. The cells are incubated at 37° C. in a 5% CO2 humidified atmosphere for 24 hours. For high throughput screening, one concentration of each compound will be tested at 0.3 μg/mL. Based on an average molecular weight of 300 g/mol for the compounds in the library, the concentration is approximately 1 μM. Subsequently, active compounds will be tested in dose response assays to determine EC50 and IC50.
3. Alkaline Phosphatase Enzyme Assay:
At the end of treatment, the medium is removed from the plate. Fifty μl of assay buffer I is added to each well. The plates are shaken in a titer plate shaker for 15 min. Then 150 μl of assay buffer II is added to each well. Optical density measurements are taken at 5 min intervals for 30 min at a test wavelength of 405 nm.
4. Analysis of Dose-Response Data.
For reference and test compounds, a dose response curve is generated for dose vs. the rate of enzyme reaction (slope). Square root-transformed data are used for analysis of variance and nonlinear dose response curve fitting for both agonist and antagonist modes. Huber weighting is used to down-weight the effects of outliers. EC50 or IC50 values are calculated from the retransformed values. JMP software (SAS Institute, Inc.) is used for both one-way analysis of variance and non-4 linear dose response analysis in both single dose and dose response studies.
Progesterone and trimegestone are reference progestins and RU486 is the reference antiprogestin. All reference compounds are run in full dose response curves and the EC50 and IC50 values are calculated.

| IC50 | Structure (SMILES) |
| --- | --- |
| 4.5 nM | C=CCN1C(=O)C(C)(C)c2cc(-c3ccc(C#N)n3C)cc(F)c21 [5-(1-allyl-7-fluoro-3,3-dimethyl-2-oxo-2,3-dihydro-1H-indol-5-yl)-1-methyl-1H-pyrrole-2-carbonitrile] |
| 164 nM | Cn1c(C#N)ccc1-c1cc(F)c2c(c1)C(C)(C)C(=O)N2Cc1ccccc1 [5-(1-benzyl-7-fluoro-3,3-dimethyl-2-oxo-2,3-dihydro-1H-indol-5-yl)-1-methyl-1H-pyrrole-2-carbonitrile] |
| 194 nM | Cn1c(C#N)ccc1-c1cc(F)c2c(c1)C(C)(C)C(=O)N2C1CCCCC1 [5-(1-cyclohexyl-7-fluoro-3,3-dimethyl-2-oxo-2,3-dihydro-1H-indol-5-yl)-1-methyl-1H-pyrrole-2-carbonitrile] |
| 25.2 nM | Cn1c(C#N)ccc1-c1cc(F)c2c(c1)C(C)(C)C(=O)N2C1CCCC1 [5-(1-cyclopentyl-7-fluoro-3,3-dimethyl-2-oxo-2,3-dihydro-1H-indol-5-yl)-1-methyl-1H-pyrrole-2-carbonitrile] |
| 29.5 nM | CCN1C(=O)C(C)(C)c2cc(-c3ccc(C#N)n3C)cc(F)c21 [5-(1-ethyl-7-fluoro-3,3-dimethyl-2-oxo-2,3-dihydro-1H-indol-5-yl)-1-methyl-1H-pyrrole-2-carbonitrile] |
| 4.95 nM | CCC1(CC)C(=O)Nc2c(F)cc(-c3ccc(C#N)n3C)cc21 [5-(3,3-diethyl-7-fluoro-2-oxo-2,3-dihydro-1H-indol-5-yl)-1-methyl-1H-pyrrole-2-carbonitrile] |
| 30 nM | Cn1c(C#N)ccc1-c1ccc2c(c1F)C(C)(C)C(=O)N2 [5-(4-fluoro-3,3-dimethyl-2-oxo-2,3-dihydro-1H-indol-5-yl)-1-methyl-1H-pyrrole-2-carbonitrile] |
| 7.8 nM | Cn1c(C#N)ccc1-c1ccc2c(c1F)C1(CC1)C(=O)N2 [5-(4′-fluoro-2′-oxo-1′,2′-dihydrospiro[cyclopropane-1,3′-indol]-5′yl)-1-methyl-1H-pyrrole-2-carbonitrile] |
| 22.3 nM | CN1C(=O)C(C)(C)c2cc(-c3ccc(C#N)n3C)cc(F)c21 [5-(7-Fluoro-1,3,3-trimethyl-2-oxo-2,3-dihydro-1H-indol-5-yl)-1-methyl-1H-pyrrole-2-carbonitrile] |
| 29.9 nM | CC(C)CN1C(=O)C(C)(C)c2cc(-c3ccc(C#N)n3C)cc(F)c21 [5-(7-fluoro-1-isobutyl-3,3-dimethyl-2-oxo-2,3-dihydro-1H-indol-5-yl)-1-methyl-1H-pyrrole-2-carbonitrile] |
| 13 nM | CC(C)N1C(=O)C(C)(C)c2cc(-c3ccc(C#N)n3C)cc(F)c21 [5-(7-fluoro-1-isopropyl-3,3-dimethyl-2-oxo-2,3-dihydro-1H-indol-5-yl)-1-methyl-1H-pyrrole-2-carbonitrile] |
| 109 nM | Cn1c(C#N)ccc1-c1cc(F)c2c(c1)CC(=O)N2 [5-(7-fluoro-2-oxo-2,3-dihydro-1H-indol-5-yl)-1-methyl-1H-pyrrole-2-carbonitrile] |
| 30 nM | C#CCN1C(=O)C(C)(C)c2cc(-c3ccc(C#N)n3C)cc(F)c21 [5-(7-fluoro-3,3-dimethyl-2-oxo-1-prop-2-yn-1-yl-2,3-dihydro-1H-indol-5-yl)-1-methyl-1H-pyrrole-2-carbonitrile] |
| 26.5 nM | CCCN1C(=O)C(C)(C)c2cc(-c3ccc(C#N)n3C)cc(F)c21 [5-(7-fluoro-3,3-dimethyl-2-oxo-1-propyl-2,3-dihydro-1H-indol-5-yl)-1-methyl-1H-pyrrole-2-carbonitrile] |
| 107 nM | CC1(C)C(=O)Nc2c(F)cc(-c3ccc(C#N)[nH]3)cc21 [5-(7-fluoro-3,3-dimethyl-2-oxo-2,3-dihydro-1H-indol-5-yl)-1H-pyrrole-2-carbonitrile] |
| 2.75 nM | Cn1c(C#N)ccc1-c1cc(F)c2c(c1)C1(CCC1)C(=O)N2 [5-(7′-fluoro-2′-oxo-1′,2′-dihydrospiro[cyclobutane-1,3′-indol]-5′-yl)-1-methyl-1H-pyrrole-2-carbonitrile] |
| 3.2 nM | Cn1c(C#N)ccc1-c1cc(F)c2c(c1)C1(CCCC1)C(=O)N2 [5-(7′-fluoro-2′-oxo-1′,2′-dihydrospiro[cyclopentane-1,3′-indol]-5′-yl)-1-methyl-1H-pyrrole-2-carbonitrile] |
| 10.8 nM | Cn1c(C#N)ccc1-c1cc(F)c2c(c1)C1(CC1)C(=O)N2 [5-(7′-fluoro-2′-oxo-1′,2′-dihydrospiro[cyclopropane-1,3′-indol]-5′-yl)-1-methyl-1H-pyrrole-2-carbonitrile] |
| 351 nM | Cn1c(C#N)ccc1-c1cc(F)c2c(c1)C(C)(C)C(=O)N2CCc1ccccc1 [5-[7-fluoro-3,3-dimethyl-2-oxo-1-(2-phenylethyl)-2,3-dihydro-1H-indol-5-yl]-1-methyl-1H-pyrrole-2-carbonitrile] |
| 48 nM | COC(=O)CN1C(=O)C(C)(C)c2cc(-c3ccc(C#N)n3C)cc(F)c21 [methyl [5-(5-cyano-1-methyl-1H-pyrrol-2-yl)-7-fluoro-3,3-dimethyl-2-oxo-2,3-dihydro-1H-indol-1-yl]acetate] |
| 125 nM | CC(C)(C)OC(=O)n1c(C#N)ccc1-c1cc(F)c2c(c1)C(C)(C)C(=O)N2 [tert-butyl 2-cyano-5-(7-fluoro-3,3-dimethyl-2-oxo-2,3-dihydro-1H-indol-5-yl)-1H-pyrrole-1-carboxylate] |
